Test system: TNF-α production from mouse peritoneal macrophage
Experiment: Inhibition of TNF-α production from mouse peritoneal macrophage (LPS stimulation, ELISA)
Assay type: cell-based
Conditions: ICR mouse peritoneal cells, GM-CSF and IFN-γ 10 ng/ml, LPS 5 ng/ml, cultured 16 hrs, 50% suppression of TNF-α amount, read-out: IC50 (μM) Mo-TNF
Procedure: Test for TNF-α Production or Inhibition of TNF-α Production from Mouse Peritoneal Macrophage Peritoneal cells were recovered from the peritoneal cavity of ICR mice (male, 5-7 weeks of age, Charles River) and sown in a 96-well half plate (Costar 3696) at a density of 1×10^5 cells per well. As the medium, RPMI-1640 containing 10% fetal calf serum was used and, using this medium, each reagent was prepared. Mouse GM-CSF (Peprotech) and mouse IFN-γ (Peprotech) were respectively added at a final concentration of 10 ng/ml, lipopolysaccharide (E. coli 0111: B4 LPS, DIFCO, lot 99078) was added at a final concentration of 5 ng/ml, and the compound of the present invention was added at 8 steps of dilution series by 3-fold dilution from the final concentration (300 μM), and cultured for 16 hrs. The concentration of TNF-α secreted into the culture supernatant was determined using a mouse TNF-α ELISA quantitative determination kit (Pharmingen, #2673KI) and the absorbance at 450 nm was measured using a V-max kinetic microplate reader (Molecular Devices). The concentration of the compound necessary for 50% suppression of TNF-α amount produced by lipopolysaccharide stimulation was taken as IC50 (μM).

SMILES | IC50 [µM]
Nc1c2c(nn1-c1ccccc1)/C(=C\c1ccc(O)cc1)C(=O)NC2=O [Example 46] | 23.7
Nc1c2c(nn1-c1ccccc1)/C(=C\c1ccco1)C(=O)NC2=O [Example 83] | 93.2
Cc1ccc(-n2nc3c(c2N)C(=O)NC(=O)C3)cc1 [Example 5] | 23.9
Cc1ccccc1/C=C1/C(=O)NC(=O)c2c1nn(-c1ccccc1)c2N [Example 49] | 32.7
COc1cccc(OC)c1/C=C1/C(=O)NC(=O)c2c1nn(-c1ccccc1)c2N [Example 73] | 5.6
Nc1c2c(nn1-c1ccccc1)CC(=O)NC2=O [Example 21] | 3.5
Cn1ccnc1/C=C1/C(=O)NC(=O)c2c1nn(-c1ccccc1)c2N [Example 64] | 3.5
Nc1c2c(nn1-c1ccccc1)/C(=C\c1ccc(O)c(O)c1)C(=O)NC2=O [Example 56] | 3.3
Nc1ccc(/C=C2/C(=O)NC(=O)c3c2nn(-c2ccccc2)c3N)cc1 [Example 55] | 6.1
COC(=O)CCn1nc2c(c1N)C(=O)NC(=O)C2 [Example 36] | 80.5
O=C1Cc2nn(-c3ccccc3)c(Br)c2C(=O)N1 [Example 26] | 15.1
Nc1c2c(nn1-c1ccc(Cl)cc1)CC(=O)NC2=O [Example 12] | 11.8
Nc1c2c(nn1-c1cccc(Cl)c1)CC(=O)NC2=O [Example 11] | 15.2
CC(=O)Nc1ccc(/C=C2/C(=O)NC(=O)c3c2nn(-c2ccccc2)c3N)cc1 [Example 53] | 7.9
CC(C)c1ccc(/C=C2/C(=O)NC(=O)c3c2nn(-c2ccccc2)c3N)cc1 [Example 52] | 8.6
COc1cccc(/C=C2/C(=O)NC(=O)c3c2nn(-c2ccccc2)c3N)c1 [Example 72] | 80.5
COc1cc(OC)c(/C=C2/C(=O)NC(=O)c3c2nn(-c2ccccc2)c3N)c(OC)c1 [Example 74] | 4.4

SMILES | IC50 [µM]
Nc1c2c(nn1-c1ccccn1)CC(=O)NC2=O [Example 13] | 5
Nc1c2c(nn1-c1ccccc1)/C(=C\c1cccs1)C(=O)NC2=O [Example 82] | 78.5
Nc1c2c(nn1-c1c(Cl)cccc1Cl)CC(=O)NC2=O [Example 19] | 32.8
O=C1Cc2nn(-c3ccccc3)cc2C(=O)N1 [Example 25] | 28
COc1ccccc1/C=C1/C(=O)NC(=O)c2c1nn(-c1ccccc1)c2N [Example 71] | 4.5
Nc1c2c(nn1-c1cccc(F)c1)CC(=O)NC2=O [Example 9] | 18
O=C1Cc2nn(-c3ccccc3)c(Sc3ccccc3)c2C(=O)N1 [Example 33] | 79.1
Nc1c2c(nn1-c1ccccc1)/C(=C\c1ccc(C(=O)O)cc1)C(=O)NC2=O [Example 60] | 3.7
Nc1c2c(nn1-c1ccccc1)/C(=C\c1cccc(O)c1)C(=O)NC2=O [Example 57] | 7.8
Cc1cccc(-n2nc3c(c2N)C(=O)NC(=O)C3)c1 [Example 14] | 27.3
CCC/C=C1/C(=O)NC(=O)c2c1nn(-c1ccccc1)c2N [Example 77] | 14.7
O=C1Cc2nn(-c3ccccc3)c(I)c2C(=O)N1 [Example 27] | 28.3
CSCC/C=C1/C(=O)NC(=O)c2c1nn(-c1ccccc1)c2N [Example 78] | 10.6
Nc1c2c(nn1-c1ccc([N+](=O)[O-])cc1)CC(=O)NC2=O [Example 10] | 22.9
Nc1c2c(nn1-c1ccccc1)/C(=C\C1=COc3ccc(O)cc3C1)C(=O)NC2=O [Example 66] | 3.5
COc1cccc(-n2nc3c(c2N)C(=O)NC(=O)C3)c1 [Example 16] | 20.1

Further lines, results first:

IC50 [µM] | SMILES
9.9 | CC/C(C)=C1/C(=O)NC(=O)c2c1nn(-c1ccccc1)c2N [Example 88]
16.6 | O=C1Cc2nn(-c3ccccc3)c(NC3CCCCC3)c2C(=O)N1 [Example 187]
10.8 | Nc1c2c(nn1-c1c(F)c(F)c(F)c(F)c1F)CC(=O)NC2=O [Example 125]
2.1 | CCCCCCn1nc2c(c1N)C(=O)NC(=O)C2 [Example 164]
60.3 | Nc1c2c(nn1CC1CCCCC1)CC(=O)NC2=O [Example 160]
9 | Nc1c2c(nn1-c1ccccc1O)CC(=O)NC2=O [Example 153]
14.7 | O=C1Cc2nn(-c3ccccc3)c(N3CCCC3)c2C(=O)N1 [Example 186]
9.4 | Nc1c2c(nn1-c1ccc(F)cc1)CC(=O)NC2=O [Example 124]
31.9 | Nc1c2c(nn1-c1ccccc1)C(=C1CCOCC1)C(=O)NC2=O [Example 92]
13.2 | Nc1c2c(nn1Cc1ccccc1O)CC(=O)NC2=O [Example 170]
3.5 | Nc1c2c(nn1Cc1cccnc1)CC(=O)NC2=O [Example 176]
8.7 | Nc1c2c(nn1Cc1ccccc1I)CC(=O)NC2=O [Example 180]
26.9 | Nc1c2c(nn1C1CCOCC1)CC(=O)NC2=O [Example 159]
10.9 | Nc1c2c(nn1C1CCCC1)CC(=O)NC2=O [Example 161]
13 | CCCC(CCC)n1nc2c(c1N)C(=O)NC(=O)C2 [Example 162]
18.4 | Nc1c2c(nn1-c1ccccc1)C1(CC1)C(=O)NC2=O [Example 98]
99.7 | CCOC(=O)C(C)C1C(=O)NC(=O)c2c1nn(-c1ccccc1)c2N (centres unmarked) [Example 149]
26.8 | CCC(CC)Cn1nc2c(c1N)C(=O)NC(=O)C2 [Example 167]
82.2 | Cn1nc2c(c1NCc1cccc(O)c1)C(=O)NC(=O)C2 [Example 112]
0.3 | Nc1c2c(nn1-c1ccccc1)/C(=C\c1c(F)c(F)c(F)c(F)c1F)C(=O)NC2=O [Example 133]
4.3 | CCOC(=O)/C(C)=C1\C(=O)NC(=O)c2c1nn(-c1ccccc1)c2N [Example 136]
9.7 | C/C=C1/C(=O)NC(=O)c2c1nn(-c1ccccc1)c2N [Example 86]
83.1 | Nc1c2c(nn1Cc1cccc3ccccc13)CC(=O)NC2=O [Example 172]
2.6 | CC1(C)CCC(n2nc3c(c2N)C(=O)NC(=O)C3)CC1 [Example 163]
8.4 | CCOC(=O)Nc1cccc(-n2nc3c(c2N)C(=O)NC(=O)C3)c1 [Example 129]
8.3 | CC(C)=C1C(=O)NC(=O)c2c1nn(-c1ccccc1)c2N [Example 135]
26.2 | CO/N=C1/C(=O)NC(=O)c2c1nn(-c1ccccc1)c2N [Example 143]
5.8 | CCC(CC)n1nc2c(c1N)C(=O)NC(=O)C2 [Example 158]
77.3 | O=C1Cc2nn(-c3ccccc3)c(-c3ccncc3)c2C(=O)N1 [Example 190]

— patent US7902179B2, “Heterocyclic compounds” (Ajinomoto Co., Inc., priority 2001, dated 2011)
